In ChEMBL document CHEMBL3046689, “Volatile aldehydes are promising broad-spectrum postharvest insecticides” (J Agric Food Chem, 2000):
Calls of active or inactive are those of the source. The calls are words filed in the database; no cut-off is given here.

Columns and labels:
[1] = tested on: Myzus persicae; assay: Insecticidal activity against Myzus persicae (green peach aphid) applied through two-tier reduced pressure fumigation at 30 mmHg for 0.5 hr and then 760 mmHg for 1.5 hr at 23 +/- 1 degC; format: functional
[2] = tested on: Vitis vinifera; assay: Phytotoxicity in Vitis vinifera assessed as induction of olfactory damage after compound application for 1 hr through two-tier reduced pressure fumigation at 30 mmHg for 0.5 hr and then 760 mmHg for 1.5 hr at 23 +/- 1 degC; format: organism-based; conditions: in vivo
[3] = tested on: Vitis vinifera; assay: (§1) Phytotoxicity in Vitis vinifera assessed as induction of visual damage after compound application for 1 hr through two-tier reduced pressure fumigation at 30 mmHg for 0.5 hr and then 760 mmHg for 1.5 hr at 23 +/- 1 degC; format: organism-based; conditions: in vivo
[4] = tested on: Myzus persicae; assay: Insecticidal activity against Myzus persicae (green peach aphid) infested wrapped lettuce applied for 1 hr through two-tier reduced pressure fumigation at 30 mmHg for 0.5 hr and then 760 mmHg for 1.5 hr at 23 +/- 1 degC measured 24 hr; format: functional, organism-based
[5] = tested on: Tetranychus urticae; assay: Insecticidal activity against Tetranychus urticae (two-spotted spider mite); format: functional, organism-based
[6] = tested on: Pseudococcus affinis; assay: Insecticidal activity against Pseudococcus affinis; format: functional, organism-based
[7] = tested on: Bemisia; assay: Insecticidal activity against Bemisia sp.; format: functional, organism-based
[8] = tested on: Citrus x paradisi; assay: Phytotoxicity in Citrus x paradisi (grape fruit) assessed as induction of olfactory damage after compound application for 1 hr through two-tier reduced pressure fumigation at 30 mmHg for 0.5 hr and then 760 mmHg for 1.5 hr at 23 +/- 1 degC; format: organism-based; conditions: in vivo
[9] = tested on: Phaseolus vulgaris; assay: PhytoToxicity in Phaseolus vulgaris (beans) assessed as induction of olfactory damage after compound application for 1 hr through two-tier reduced pressure fumigation at 30 mmHg for 0.5 hr and then 760 mmHg for 1.5 hr at 23 +/- 1 degC; format: organism-based; conditions: in vivo
[10] = tested on: Citrus limon; assay: Phytotoxicity in Citrus limon (lemon) assessed as induction of visual damage after compound application for 1 hr through two-tier reduced pressure fumigation at 30 mmHg for 0.5 hr and then 760 mmHg for 1.5 hr at 23 +/- 1 degC; format: organism-based; conditions: citrus x limon, in vivo
[11] = tested on: Lactuca sativa; assay: Phytotoxicity in wrapped Lactuca sativa (lettuce) assessed as induction of olfactory damage after compound application for 1 hr through two-tier reduced pressure fumigation at 30 mmHg for 0.5 hr and then 760 mmHg for 1.5 hr at 23 +/- 1 degC; format: organism-based; conditions: in vivo
[12] = tested on: Oryza sativa; assay: Phytotoxicity in Oryza sativa (rice) assessed as induction of olfactory damage after compound application for 1 hr through two-tier reduced pressure fumigation at 30 mmHg for 0.5 hr and then 760 mmHg for 1.5 hr at 23 +/- 1 degC; format: organism-based; conditions: in vivo
[13] = tested on: Citrus sinensis; assay: Phytotoxicity in Citrus sinensis (orange) assessed as induction of visual damage after compound application for 1 hr through two-tier reduced pressure fumigation at 30 mmHg for 0.5 hr and then 760 mmHg for 1.5 hr at 23 +/- 1 degC; format: organism-based; conditions: in vivo
[14] = tested on: Oryza sativa; assay: Phytotoxicity in Oryza sativa (rice) assessed as induction of visual damage after compound application for 1 hr through two-tier reduced pressure fumigation at 30 mmHg for 0.5 hr and then 760 mmHg for 1.5 hr at 23 +/- 1 degC; format: organism-based; conditions: in vivo
[15] = tested on: Myzus persicae; assay: Insecticidal activity against Myzus persicae (green peach aphid) infested naked lettuce applied for 1 hr through two-tier reduced pressure fumigation at 30 mmHg for 0.5 hr and then 760 mmHg for 1.5 hr at 23 +/- 1 degC measured 24 hr; format: functional, organism-based
[16] = tested on: Lactuca sativa; assay: Phytotoxicity in naked Lactuca sativa (lettuce) assessed as residual aldehyde odor after compound application through two-tier reduced pressure fumigation at 30 mmHg for 0.5 hr and then 760 mmHg for 1.5 hr at 23 +/- 1 degC after 2 hr; format: organism-based; conditions: in vivo
[17] = tested on: Brassica oleracea var. capitata; assay: Phytotoxicity in Brassica oleracea var. capitata (cabbage) assessed as induction of olfactory damage after compound application for 1 hr through two-tier reduced pressure fumigation at 30 mmHg for 0.5 hr and then 760 mmHg for 1.5 hr at 23 +/- 1 degC; format: organism-based; conditions: in vivo
[18] = tested on: Brassica oleracea var. italica; assay: Phytotoxicity in Brassica oleracea var. italica assessed as induction of visual damage after compound application for 1 hr through two-tier reduced pressure fumigation at 30 mmHg for 0.5 hr and then 760 mmHg for 1.5 hr at 23 +/- 1 degC; format: organism-based; conditions: in vivo
[19] = tested on: Brevicoryne brassicae; assay: Insecticidal activity against Brevicoryne brassicae (cabbage aphids); format: functional, organism-based
[20] = tested on: Citrus x paradisi; assay: Phytotoxicity in Citrus x paradisi (grape fruit) assessed as induction of visual damage after compound application for 1 hr through two-tier reduced pressure fumigation at 30 mmHg for 0.5 hr and then 760 mmHg for 1.5 hr at 23 +/- 1 degC; format: organism-based; conditions: in vivo
[21] = tested on: Lactuca sativa; assay: Phytotoxicity in wrapped Lactuca sativa (lettuce) assessed as induction of visual damage after compound application for 1 hr through two-tier reduced pressure fumigation at 30 mmHg for 0.5 hr and then 760 mmHg for 1.5 hr at 23 +/- 1 degC; format: organism-based; conditions: in vivo
[22] = tested on: Brassica oleracea var. italica; assay: Phytotoxicity in Brassica oleracea var. italica after compound application for 1 hr through two-tier reduced pressure fumigation at 30 mmHg for 0.5 hr and then 760 mmHg for 1.5 hr at 23 +/- 1 degC; format: organism-based; conditions: in vivo
[23] = tested on: Phaseolus vulgaris; assay: PhytoToxicity in Phaseolus vulgaris (beans) assessed as induction of visual damage after compound application for 1 hr through two-tier reduced pressure fumigation at 30 mmHg for 0.5 hr and then 760 mmHg for 1.5 hr at 23 +/- 1 degC; format: organism-based; conditions: in vivo, other
[24] = tested on: Lactuca sativa; assay: Phytotoxicity in naked Lactuca sativa (lettuce) assessed as change in visual quality after compound application for 1 hr through two-tier reduced pressure fumigation at 30 mmHg for 0.5 hr and then 760 mmHg for 1.5 hr at 23 +/- 1 degC; format: organism-based; conditions: in vivo
[25] = tested on: Persea americana; assay: Phytotoxicity in Persea americana (avocado) assessed as induction of olfactory damage after compound application for 1 hr through two-tier reduced pressure fumigation at 30 mmHg for 0.5 hr and then 760 mmHg for 1.5 hr at 23 +/- 1 degC; format: organism-based; conditions: in vivo
[26] = tested on: Malus domestica; assay: Phytotoxicity in Malus x domestica (apple) assessed as induction of olfactory damage after compound application for 1 hr through two-tier reduced pressure fumigation at 30 mmHg for 0.5 hr and then 760 mmHg for 1.5 hr at 23 +/- 1 degC; format: organism-based; conditions: in vivo
[27] = tested on: Lactuca sativa; assay: Phytotoxicity in naked Lactuca sativa (lettuce) assessed as change in visual quality after compound application through two-tier reduced pressure fumigation at 30 mmHg for 0.5 hr and then 760 mmHg for 1.5 hr at 23 +/- 1 degC after 2 hr; format: organism-based; conditions: in vivo
[28] = tested on: Vitis vinifera; assay: as §1; format: organism-based; conditions: in vivo; remark: listed apart in the source
[29] = tested on: Malus domestica; assay: Phytotoxicity in Malus x domestica (apple) assessed as induction of visual damage after compound application for 1 hr through two-tier reduced pressure fumigation at 30 mmHg for 0.5 hr and then 760 mmHg for 1.5 hr at 23 +/- 1 degC; format: organism-based; conditions: in vivo
[30] = tested on: Pseudococcus viburni; assay: Insecticidal activity against Pseudococcus viburni; format: functional, organism-based
[31] = tested on: Frankliniella occidentalis; assay: Insecticidal activity against Frankliniella occidentalis (western flower thrips); format: functional, organism-based

With CCC=O [PROPIONALDEHYDE] the CTP [1] was 4.2 mg/L.hr, the Activity [2] was “Non-toxic” and the Activity [3] was “Non-toxic”. For the same molecule, the Activity [4] was “Active”, the Activity [5] was “inactive” and the Activity [6] was “Active”. For the same molecule, the Activity [7] was “Active”, the Activity [8] was “Non-toxic” and the Activity [9] was “Non-toxic”. For the same molecule, the Activity [10] was “Non-toxic”, the Activity [11] was “Toxic” and the Activity [12] was “Non-toxic”. The Activity [13] was “Non-toxic”, the Activity [14] was “Non-toxic” and the Activity [15] was “Active”. For the same molecule, the Activity [16] was “Toxic”, the Activity [17] was “Toxic” and the Activity [18] was “Non-toxic”. The Activity [19] was “inactive”, the Activity [20] was “Non-toxic” and the Activity [21] was “Non-toxic”. The Activity [22] was “Toxic”, the Activity [23] was “Non-toxic” and the Activity [24] was “Toxic”. The Activity [25] was “Non-toxic”, the Activity [26] was “Non-toxic” and the Activity [27] was “Toxic”. For the same molecule, the Activity [28] was “Non-toxic”, the Activity [29] was “Non-toxic” and the Activity [30] was “Active”. The Activity [31] was “Active”.
